Results as given in US20040152766A1, “Composition comprising demethylcantharidin in combination with platinum-containing anticancer agents and use thereof” (priority 2003, published 2004).
Several values for one entry are separate records, joined by “and”; a condition that tells them apart may be missing. Equal entries are not always repeated. Where two headings read alike, the source gives them in different places.

What was measured:
[1] = system: SK-Hep-1 human liver cancer; assay: In vitro antitumor-drug screening, MTT assay, SK-Hep-1; assay type: cell-based
Experimental: (§1) Test complexes 1-5, DMC, hydrolyzed DMC, cantharidin, together with controls cisplatin and carboplatin, were screened for in vitro antitumor activity against a series of human cancer cell lines and mouse leukaemia L1210, using a tetrazolium microculture assay.
(§2) Drugs: Drugs to be tested were dissolved in complete medium at twice the highest concentration to be used, followed by filter (0.22 μm) sterilization. A series of log dilutions were made of each drug solution using complete medium. All drug solutions were prepared within 10 minutes before adding to the cells.
(§3) Cells: MDA-MB-231 (human breast), SK-OV-3 (human ovarian), SK-Hep-1 (human liver), COLO320DM (human colon), L1210 (mouse leukaemia), NCI:H460 (human lung) and NTERA-Scl-D1 (human testicular) were obtained from the American Type Culture Collection (ATCC).
(§4) The cultures were incubated for an additional 72 hours.
(§5) Data analysis: The mean OD for all 12 control wells was determined. For each concentration of each drug, the mean OD of the 4 wells was determined. All mean OD was subtracted from the blank to account for the background. The “Percent of Control” values were determined and plotted. The concentration of drug resulting in 50% growth inhibition (IC50) was determined using the software Prism 3.0 by fitting the graph into sigmoidal dose-response curve.

[2] = system: L1210 mouse leukaemia; assay: In vitro antitumor-drug screening, tetrazolium (MTT) microculture assay, L1210; assay type: cell-based
Experimental: as §1, §2, §3, §4, §5

[3] = system: SK-OV-3 human ovarian cancer; assay: In vitro antitumor-drug screening, MTT assay, SK-OV-3; assay type: cell-based
Experimental: as §1, §2, §3, §4, §5

[4] = system: MDA-MB-231 human breast cancer; assay: In vitro antitumor-drug screening, MTT assay, MDA-MB-231; assay type: cell-based
Experimental: as §1, §2, §3, §4, §5

[5] = system: COLO320DM human colon cancer; assay: In vitro antitumor-drug screening, MTT assay, COLO320DM; assay type: cell-based
Experimental: as §1, §2, §3, §4, §5

[6] = system: Cisplatin-resistant L1210 mouse leukaemia; details: for fold-resistant (cross-resistance): Dm in CDDP-resistant L1210 versus sensitive L1210
Experimental: (§6) In vitro drug exposure: Trypsinized cells were adjusted to a concentration of 2×10^5 cells/ml in complete medium and for each drug to be tested, 0.1 ml of the cell suspension was added to each of the 24 wells of a 96-well microtitre plate. The plate was then incubated at standard conditions for 24 hours in order to allow the cells to attach to the bottom of the well and resume exponential growth. To each well of the control cultures and drug/concentration combination, 0.1 ml of complete medium and drug solution respectively was added. Each drug/concentration combination consisted of 4 replicates while control cultures consisted of 12 replicates. 12 replicates of blank consisting of 0.2 ml complete medium were set aside to account for the background. The cultures were incubated for an additional 72 hours. All experiments were repeated at least 3 times on different occasions.
(§7) MTT assay: The MTT (tetrazolium) assay was used to determine the growth-inhibitory effects of different drugs. A 5 mg/ml solution of MTT (3-(4,5-dimethylthiazol-2-yl)-2,5-diphenyltetrazolium bromide) was prepared in phosphate buffer saline (pH 7.4), filter (0.22 μm) sterilized and stored at −20° C. To each well, 0.02 ml of the MTT solution was added and the plates were incubated at standard conditions for 4 hours. The media from each well was then removed and 0.1 ml of DMSO (dimethylsulfoxide) was added to each well to solubilize the colored dye produced from the metabolic reduction of MTT. The amount of reduced MTT was determined by spectrophotometric means (570 nm).
(§8) Platinum compounds were evaluated alone and in combination with demethylcantharidin (DMC) for their cytotoxic effects. The cytotoxicity for the compounds was determined by the MTT assay as described above. The median-effect principle and combination-index isobologram method of Chou and Talalay was used to determine the dose-effect parameters for cisplatin, DMC, or their mixtures at different combination ratios. Each drug or mixture was 3-fold serially diluted to generate a dose-effect relationship in the cytotoxic assays.
(§9) Combinations of cisplatin and DMC were evaluated for synergism, additive effect or antagonism using the median-effect plot and combination-index isobologram method of Chou and Talalay references 1-4.
This method involves plotting dose-effect curves for each agent and their combinations in multiply-diluted concentrations by using the median-effect equation [3,6]
where fa is the fraction of cells affected (ie, fraction of cells killed), fu the fraction unaffected (i.e. fraction of cells surviving; fa=1−fu), D the dose of drug and Dm the dose causing the median effect
The parameters m, Dm, and r are the slope, antilog of x-intercept, and the linear correlation coefficient of the median-effect plot, which signifies the shape of the dose-effect curve, the potency (IC50), and conformity of the data to the mass-action law, in references 3, 5 and 6, respectively. Dm and m values are used for calculating the combination index (CI) values.
CI<1, CI=1, and CI>1 indicate synergism, additivity, and antagonism, respectively. As based on the classic isobologram equation, CI can be calculated by equation:
CI=[(D)1/(Dx)1]+[(D)2/(Dx)2]+[α(D)1(D)2]/[(Dx)1(Dx)2),
Both the mutually non-exclusive and exclusive drug interaction as defined by Chou and Chou (reference 7) were evaluated.
To preclude a false-positive result, classical isobologram curve tracing was used to confirm the synergistic effect at a reasonable fractional cytotoxic effect (fa=50%).

[7] = system: NTERA-S cl D1 human testicular cancer; assay: In vitro antitumor-drug screening, MTT assay, NTERA-S cl D1; assay type: cell-based; details: n = 12-16 from 3-4 independent experiments, read-out: Growth-inhibitory activity IC50 ± sd
Experimental: as §1, §2, §3, §4, §5

[8] = system: NCI: H460 human lung cancer; assay: In vitro antitumor-drug screening, MTT assay, NCI:H460; assay type: cell-based; details: n = 12-16 from 3-4 independent experiments, read-out: Growth-inhibitory activity IC50 ± sd
Experimental: as §1, §2, §3, §4, §5

[9] = system: Sensitive parental L1210 mouse leukaemia; assay: cells; assay type: cell-based; details: 72-hr exposure, fa = 50%
Experimental: as §6, §7, §8, §9
This method involves plotting dose-effect curves for each agent and their combinations in multiply-diluted concentrations by using the median-effect equation [3,6] […]
CI<1, CI=1, and CI>1 indicate synergism, additivity, and antagonism, respectively. As based on the classic isobologram equation, CI can be calculated by equation: […]
Both the mutually non-exclusive and exclusive drug interaction as defined by Chou and Chou (reference 7) were evaluated. […]

[10] = Homo sapiens, SK-HEP1, SK-Hep-1, Table 1, read-out: In vitro antitumor activity IC50
[11] = Mus musculus, L1210, Table 1, read-out: In vitro antitumor activity IC50
[12] = Homo sapiens, SK-OV-3, Table 1, read-out: In vitro antitumor activity IC50
[13] = Homo sapiens, MDA-MB-231, Table 1, read-out: In vitro antitumor activity IC50
[14] = Homo sapiens, COLO 320DM, COLO320DM, Table 1, read-out: In vitro antitumor activity IC50
[15] = SK-Hep-1 human liver cancer, n = 12-16 from 3-4 independent experiments, read-out: Growth-inhibitory activity IC50 ± sd
[16] = L1210 mouse leukaemia, n = 12-16 from 3-4 independent experiments, read-out: Growth-inhibitory activity IC50 ± sd
[17] = SK-OV-3 human ovarian cancer, n = 12-16 from 3-4 independent experiments, read-out: Growth-inhibitory activity IC50 ± sd
[18] = MDA-MB-231 human breast cancer, n = 12-16 from 3-4 independent experiments, read-out: Growth-inhibitory activity IC50 ± sd
[19] = COLO320-DM human colon cancer, n = 12-16 from 3-4 independent experiments, read-out: Growth-inhibitory activity IC50 ± sd
[20] = sensitive parental L1210, read-out: Dm (i.e. IC50), antilog of x-intercept of the median-effect plot

| Compound | IC50 [1, 15] | IC50 [2, 16] | fold-resistant (cross-resistance) [6] | IC50 [7] | IC50 [3, 17] | IC50 [4, 18] | IC50 [5, 19] | IC50 [8] | further results |
| --- | --- | --- | --- | --- | --- | --- | --- | --- | --- |
| C[C@@]12C(=O)OC(=O)[C@]1(C)[C@H]1CC[C@@H]2O1 [Cantharidin] |  |  |  |  |  |  |  |  | IC50 [1, 10]: 3.34 µM; IC50 [2, 11]: 38.9 µM; IC50 [3, 12]: 4.98 µM; IC50 [4, 13]: 10.6 µM; IC50 [5, 14]: 35.6 µM |
| N.N.O=C([O-])C1(C(=O)[O-])CCC1.[Pt+2] [Carboplatin, reference compound] | 501 ± 86.6 µM | 10.1 ± 3.71 µM | 14.5 fold | 2.75 ± 1.13 µM | 149 ± 34.1 µM | 1080 ± 157 µM | 188 ± 35.8 µM | 60.3 ± 16.4 µM | IC50 [6]: 154 µM; fold-resistant (cross-resistance) ([6]; listed as carboplatin): ~15 fold; IC50 [9, 20]: 10.6 µM |
| N.N.[Cl][Pt][Cl] [Cisplatin, reference compound] | 54.1 ± 9.81 µM | 0.51 ± 0.11 µM | 40.8 fold | 0.19 ± 0.1 µM | 15.2 ± 11.8 µM | 65.7 ± 4.39 µM | 11.9 ± 1.5 µM | 11.3 ± 4.93 µM | IC50 [6]: 24.6 µM; DRI for cisplatin, resistant versus sensitive parental cell line ([6]; Cisplatin:DMC 1:1.67 (resistant) versus 1:1.49 (sensitive)): about 5.5 fold; fold-resistant (cross-resistance) ([6]; listed as cisplatin): 40 fold; IC50 [9, 20]: 0.603 µM |
| [NH2][Pt]1([NH2])[O]C(=O)C2C3CCC(O3)C2C(=O)[O]1 (stereo not drawn) [Complex 1] | 20.6 ± 5.89 µM | 2.71 ± 0.4 µM | 8 fold and 8.2 fold | 0.36 ± 0.25 µM | 40.8 ± 14.3 µM | 63.8 ± 8.28 µM | 37.2 ± 7.14 µM | 21.1 ± 10.7 µM | IC50 [6]: 42.4 µM; fold-resistant (cross-resistance) ([6]; listed as complex 1): different degree of cross-resistant; IC50 [9, 20]: 5.15 µM |
| CC(C)[NH][Pt]1([NH]C(C)C)[O]C(=O)C2C3CCC(O3)C2C(=O)[O]1 (stereo not drawn) [Complex 2] | 17.2 ± 8.07 µM | 12.1 ± 2.35 µM |  | 1.44 ± 0.41 µM | 77.7 ± 19.8 µM | 94.5 ± 9.61 µM | 84.7 ± 9.68 µM | 26.5 ± 8.09 µM |  |
| C[NH][Pt]1([NH]C)[O]C(=O)C2C3CCC(O3)C2C(=O)[O]1 (stereo not drawn) [Complex 3] | 15.4 ± 6.04 µM | 6.19 ± 2.67 µM |  | 0.84 ± 0.2 µM | 37.2 ± 13.4 µM | 49.4 ± 9.42 µM | 48.9 ± 10.5 µM | 3.44 ± 1.98 µM |  |
| CC[NH][Pt]1([NH]CC)[O]C(=O)C2C3CCC(O3)C2C(=O)[O]1 (stereo not drawn) [Complex 4] | 20 ± 5.52 µM | 5.92 ± 1.94 µM |  | 0.6 ± 0.24 µM | 62.6 ± 33.5 µM | 62.5 ± 13.3 µM | 48.5 ± 9.95 µM | 3.91 ± 2.65 µM |  |
| O=C1[O][Pt]2([NH]C3CCCCC3[NH]2)[O]C(=O)C2C3CCC(O3)C12 (stereo not drawn) [Complex 5] |  |  | negligible cross-resistance |  |  |  |  |  |  |
| O=C1OC(=O)C2C3CCC(O3)C12 (stereo not drawn) [DMC, Demethylcantharidin] |  |  | 1.1 fold |  |  |  |  |  | IC50 [1, 10]: 11.5 µM; IC50 [2, 11]: 13.9 µM; fold-resistant (cross-resistance) ([6]; listed as demethylcantharidin (DMC)): negligible cross-resistance; IC50 [3, 12]: 53.8 µM; IC50 [4, 13]: 31.8 µM; IC50 [5, 14]: 19.3 µM; IC50 ([9]; Mus musculus, L1210, 72 h, read-out: Dm (i.e. IC50), antilog of x-intercept of the median-effect plot, sensitive parental L1210): 11.2 µM |
| O=C(O)C1C2CCC(O2)C1C(=O)O (stereo not drawn) [Hydrolyzed DMC] |  |  |  |  |  |  |  |  | IC50 ([1]; SK-Hep-1, Table 1, read-out: In vitro antitumor activity IC50): 7.2 µM; IC50 ([2]; L1210, Table 1, read-out: In vitro antitumor activity IC50): 8.33 µM; IC50 ([3]; SK-OV-3, Table 1, read-out: In vitro antitumor activity IC50): 46.6 µM; IC50 ([4]; MDA-MB-231, Table 1, read-out: In vitro antitumor activity IC50): 41.7 µM; IC50 ([5]; COLO320DM, Table 1, read-out: In vitro antitumor activity IC50): 46.5 µM |
| O=C1[O][Pt]2([NH][C@@H]3CCCC[C@H]3[NH]2)[O]C1=O [Oxaliplatin] |  |  | different degree of cross-resistant |  |  |  |  |  |  |
